According to BindingDB's records for doi:10.1016/j.ejmech.2019.03.019 (Csic - Universidad De Zaragoza, 2019):

Test: Inhibition of NS5B RNA dependent RNA polymerase in HCV 1b Con1 infected in human Huh5-2 cells assessed as reduction in viral RNA replication measured after 3 days by luciferase reporter gene assay

Compound: COC[C@H]1C[C@@](CC(C)C)(C(=O)O)N(C(=O)c2ccc(C(C)(C)C)c(OC)c2)[C@H]1COC(=O)OC
- EC50: 30 µM

Compound: COC[C@H]1C[C@@](CC(C)C)(C(=O)O)N(C(=O)c2ccc(C(C)(C)C)c(OC)c2)[C@H]1[C@H]1COC(=O)O1
- EC50: 2 µM

Compound: COC[C@H]1C[C@@](CC(C)C)(C(=O)O)N(C(=O)c2ccc(C(C)(C)C)c(OC)c2)[C@@H]1c1nccs1
- EC50: 15 µM

Compound: COC[C@H]1C[C@@](CC(C)C)(C(=O)O)N(C(=O)c2ccc(C(C)(C)C)c(OC)c2)[C@H]1CF
- EC50: 45 µM

Compound: COC[C@H]1C[C@@](CC(C)C)(C(=O)O)N(C(=O)c2ccc(C(C)(C)C)c(OC)c2)[C@H]1CN=[N+]=[N-]
- EC50: 100 µM

Compound: COC[C@H]1C[C@@](CC(C)C)(C(=O)O)N(C(=O)c2ccc(C(C)(C)C)c(OC)c2)[C@H]1CNC(C)=O
- EC50: 15 µM

Compound: CC[C@H]1[C@@H](COC)C[C@@](CC(C)C)(C(=O)O)N1C(=O)c1ccc(C(C)(C)C)c(OC)c1
- EC50: 40 µM

Compound: COC[C@H]1C[C@@](CC(C)C)(C(=O)O)N(C(=O)c2ccc(C(C)(C)C)c(OC)c2)[C@H]1C(N)=O
- EC50: 2 µM

Compound: C=CCOC[C@H]1[C@@H](COC)C[C@@](CC(C)C)(C(=O)O)N1C(=O)c1ccc(C(C)(C)C)c(OC)c1
- EC50: 7.5 µM

Compound: COC[C@H]1C[C@@](CC(C)C)(C(=O)O)N(C(=O)c2ccc(C(C)(C)C)c(OC)c2)[C@H]1C(=O)OC
- EC50: 7 µM

Compound: COC[C@H]1C[C@@](CC(C)C)(C(=O)O)N(C(=O)c2ccc(C(C)(C)C)c(OC)c2)[C@H]1COC(C)=O
- EC50: 30 µM

Compound: COC[C@H]1C[C@@](CC(C)C)(C(=O)O)N(C(=O)c2ccc(C(C)(C)C)c(OC)c2)[C@H]1c1nccs1
- EC50: 0.1 µM

Compound: COC[C@H]1C[C@@](CC(C)C)(C(=O)O)N(C(=O)c2ccc(C(C)(C)C)c(OC)c2)[C@H]1COC
- EC50: 0.6 µM

Compound: COC[C@H]1C[C@@](CC(C)C)(C(=O)O)N(C(=O)c2ccc(C(C)(C)C)c(OC)c2)[C@H]1[C@H]1COC(C)(C)O1
- EC50: 60 µM

Compound: CCOC(=O)c1csc([C@H]2[C@@H](COC)C[C@@](CC(C)C)(C(=O)O)N2C(=O)c2ccc(C(C)(C)C)c(OC)c2)n1
- EC50: 60 µM
